PubChem BioAssay (NCI)
Where “and” joins values, the source holds several entries; their conditions need not be identical. Equal entries are not always repeated.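 Cells were grown in 96-well plates and exposed to each compound for 48 hours at five concentrations; endpoints were interpolated linearly between bracketing concentrations, or set to the highest concentration if not reached. GI50 is the concentration that inhibits growth by half. The concentration for full growth arrest is given as TGI.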

Legend:
Test in all cases: NCI anticancer screen, dose series, 48 h
[1] = system: HOP-92 NSCLC
[2] = system: HS 578T breast
[3] = system: IGROV1 ovarian
[4] = system: LOX IMVI melanoma
[5] = system: MDA-MB-231 breast
[6] = system: MOLT-4 leukemia
[7] = system: PC-3 prostate
[8] = system: SK-MEL-2 melanoma
[9] = system: SNB-75 CNS
[10] = system: UACC-62 melanoma

COc1cc(CNCc2cc(OC)c(OC)c(OC)c2)cc(OC)c1OC
TGI [1]: > 10 µM
TGI [2]: > 10 µM
TGI [3]: > 10 µM
TGI [4]: > 10 µM
TGI [5]: > 10 µM
TGI [6]: > 10 µM
TGI [7]: > 10 µM
TGI [8]: > 10 µM
TGI [9]: > 10 µM
TGI [10]: > 10 µM

C[N+](C)(C)CC1CCCCCCCCCCC1=O (stereo not given)
TGI [1]: > 100 µM
TGI [2]: > 100 µM
TGI [3]: > 100 µM
TGI [4]: > 100 µM
TGI [5]: > 100 µM
TGI [6]: > 100 µM
TGI [7]: > 100 µM
TGI [8]: > 100 µM
TGI [9]: > 100 µM
TGI [10]: > 100 µM

c1ccc2c(c1)ccn2CCc1c[nH]c2ccccc12
TGI [1]: > 10 µM
TGI [2]: > 10 µM
TGI [3]: > 10 µM
TGI [4]: > 10 µM
TGI [5]: > 10 µM
TGI [6]: > 10 µM
TGI [7]: > 10 µM
TGI [8]: > 10 µM
TGI [9]: > 10 µM
TGI [10]: > 10 µM

Nc1cc2[nH]c(=O)c(=O)[nH]c2cc1N
TGI [1]: > 100 µM
TGI [2]: > 100 µM
TGI [3]: > 100 µM
TGI [4]: > 100 µM
TGI [5]: > 100 µM
TGI [6]: > 100 µM
TGI [7]: > 100 µM
TGI [8]: > 100 µM
TGI [9]: > 100 µM
TGI [10]: > 100 µM

CCOC(=O)c1nc2ccc(C(F)(F)F)cc2nc1NCc1cc(OC)c(OC)c(OC)c1
TGI [1]: > 100 µM
TGI [2]: > 100 µM
TGI [3]: > 100 µM
TGI [4]: > 100 µM
TGI [5]: > 100 µM
TGI [6]: > 100 µM
TGI [7]: > 100 µM
TGI [8]: > 100 µM
TGI [9]: 90.6 µM
TGI [10]: > 100 µM

Cc1ccc(SCC(CF)OC(C)n2cnc3c(=O)[nH]c(N)nc32)cc1 (stereo not given)
TGI [1]: > 100 µM
TGI [2]: > 100 µM
TGI [3]: > 100 µM
TGI [4]: > 100 µM
TGI [5]: > 100 µM
TGI [6]: > 100 µM
TGI [7]: > 100 µM
TGI [8]: > 100 µM
TGI [9]: > 100 µM
TGI [10]: > 100 µM

C=CC(CCc1ccc(C(=O)OCC)cc1)c1c(N)nc(N)[nH]c1=O (stereo not given)
TGI [1]: 83.8 µM
TGI [2]: > 100 µM
TGI [3]: > 100 µM
TGI [4]: > 100 µM
TGI [5]: > 100 µM
TGI [6]: > 100 µM
TGI [7]: > 100 µM
TGI [8]: > 100 µM
TGI [9]: > 100 µM
TGI [10]: > 100 µM

CCOC(=O)/C=C(/C(=O)OCC)n1ccc(=O)n(Cc2cn(COCCOC(C)=O)nn2)c1=O
TGI [1]: 5.04 µM
TGI [2]: 70.9 µM
TGI [3]: 31.9 µM
TGI [4]: 41.9 µM
TGI [5]: 67.9 µM
TGI [6]: 41.3 µM
TGI [7]: > 100 µM
TGI [8]: 64.4 µM
TGI [9]: > 100 µM
TGI [10]: 36.7 µM

CSc1ncnc2c1ncn2C1CC(Oc2ccc(C)cc2)C(COc2ccc(C)cc2)O1 (stereo not given)
TGI [1]: > 100 µM
TGI [2]: > 100 µM
TGI [3]: > 100 µM
TGI [4]: > 100 µM
TGI [5]: > 100 µM
TGI [6]: > 100 µM
TGI [7]: > 100 µM
TGI [8]: > 100 µM
TGI [9]: > 100 µM
TGI [10]: > 100 µM

CON(C)C(=O)CNC(=O)OCC1c2ccccc2-c2ccccc21
TGI [1]: > 100 µM
TGI [2]: > 100 µM
TGI [3]: > 100 µM
TGI [4]: 53.1 µM
TGI [5]: > 100 µM
TGI [6]: > 100 µM
TGI [7]: > 100 µM
TGI [8]: > 100 µM
TGI [9]: > 100 µM
TGI [10]: > 100 µM

CSc1ccc2c(cc1=O)[C@@H](NC(=O)c1ccc(N)cc1)CCc1cc(O)c(O)c(O)c1-2
TGI [1]: > 100 µM
GI50 [2]: 24.3 µM and 10.2 µM
TGI [2]: > 75 µM and 43.6 µM
TGI [3]: > 100 µM
GI50 [4]: 12 µM and 4.07 µM
TGI [4]: > 75 µM and 22.9 µM
GI50 [5]: 47.2 µM and 19.9 µM
TGI [5]: > 75 µM and 79.6 µM
TGI [6]: > 100 µM
TGI [7]: > 100 µM
GI50 [8]: 30.9 µM and 11.4 µM
TGI [8]: > 100 µM
TGI [9]: > 100 µM
GI50 [10]: 21.5 µM and 7.58 µM
TGI [10]: > 100 µM
